{
  "source": "patent US5843916A",
  "about": "“Cyclic amp analogues, individually and in pairs, to inhibit neoplastic cell growth” (priority 1994, dated 1998)",
  "key": {"[1]": {"biological_target": "T1, Protein kinase type I (cAKI) (Oryctolagus cuniculus, UniProt G1TDN4)", "T1 construct": "prepared from rabbit skeletal muscle and bovine heart; from tissue; host or cells: rabbit skeletal muscle", "T1 sequence (G1TDN4 1-381)": "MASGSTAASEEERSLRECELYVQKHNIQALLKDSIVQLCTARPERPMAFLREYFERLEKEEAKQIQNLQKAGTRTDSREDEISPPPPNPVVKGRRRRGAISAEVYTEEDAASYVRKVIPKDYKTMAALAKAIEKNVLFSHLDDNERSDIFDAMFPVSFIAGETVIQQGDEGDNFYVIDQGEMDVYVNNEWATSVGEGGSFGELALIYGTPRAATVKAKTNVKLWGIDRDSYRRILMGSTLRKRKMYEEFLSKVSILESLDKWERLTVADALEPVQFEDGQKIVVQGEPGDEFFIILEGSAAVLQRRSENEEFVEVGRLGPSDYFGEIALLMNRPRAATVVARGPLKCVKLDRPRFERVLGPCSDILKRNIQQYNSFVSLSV", "test": "Protein kinase activation (Table 15)", "type": "biochemical, rabbit (skeletal muscle)", "details": "half-maximum activation; U. M.: unmeasurable", "protocol": "ATP to Kemptide as described by Ogreid et al., Eur. J. Biochem. 150: 219-227 (1985).\nProtein kinases types I (cAKI) and II (cAKII) were\nprepared from rabbit skeletal muscle and bovine heart,\nrespectively, as described in D.o slashed.skeland et al. (J. Biol.\nof the protein kinase in Ogreid et al. (Eur. J. Biochem."}, "[2]": {"test_system": "MCF-7", "test": "Cell cycle analysis by flow cytometry (Table 3)", "type": "cell-based, human", "details": "10 μM; 3 days", "protocol": "DNA histograms were generated on FACS II by using the DNA intercalating dye propidium iodide as described by Braylan et al. in Cytometry 2: 337-343, 1982. The percentage of cells in each cycle phase was calculated by using a PDP-11/34 computer and software as described by Neckers et al., Mol. Cell. Biol. 6: 4244-4250, 1986.\nBreast (MCF-7, MDA-MB-231) and colon (LS-174T) cancer cells in log\nphase (untreated control) and 3 days after treatment with 8-C1-cAMP\n(10 μM), N^6 -benzyl-cAMP (35 μM), and 8-Cl-adenosine (5\nwere analyzed for DNA content by flow cytometric analysis as described\nbelow. Similar results were obtained with other breast and colon cancer"}, "[3]": {"test_system": "L1210 leukemia", "test": "Life span of L1210-inoculated BDF1 mice (Table 7)"}, "[4]": {"test_system": "MCF-7ras breast cancer cell line", "test": "Synergistic growth inhibition by analogue combinations (Table 2)", "type": "cell-based, human", "details": "footnote of Table 2", "protocol": "All breast cancer cell lines were grown in IMEM supplemented with 10% fetal bovine serum, HEPES 20 mM, penicillin-streptomycin, and extra glutamine. Colon carcinoma cell lines were grown in EMEM supplemented with 10% FBS, EMEM, NEAA, HEPES 20 mM, extra glutamine, and penicillin-streptomycin. The cells were grown at 37° C. in humidified incubators in an atmosphere of 5% CO2.\nFor cell growth experiments, 2-3×10^5 cells/60 mm dish were seeded, and 24 hours later (Day 0), the medium was removed, and fresh medium and the additives were added then and every 48 hours thereafter. The compounds of the present invention were added using 100X concentrated stock solutions. At desired times, cell counts in duplicate were performed on a Coulter counter after harvesting the cells with gentle trypsinization.\nSynergism quotient was defined as the net growth inhibitory effect of the analogue combination divided by the sum of the net analogue effects on growth inhibition. A quotient of >1 indicates a synergistic effect, while a quotient of <1 indicates an antagonistic effect.\nSynergism of growth inhibition was determined by\ntreatment of cells with C-6 analogues and C-8 analogues alone\nand in combination at Day 0 and Day 2 and counting the cell\n^a Data are expressed as percentage growth inhibition in reference to\nthe growth of untreated control cells and represent average values and\nranges (in parentheses) of duplicate cell counts on three or more separat\nexperiments. The values for percentage growth inhibition of each analogue\n^b The synergism quotient was defined as previously described."}},
  "data": [
    {"compound": "Nc1ncnc2c1nc(Cl)n2[C@@H]1O[C@@H]2COP(=O)(O)O[C@H]2[C@H]1O", "note": "[8-Cl-cAMP, 8-chloro-adenosine 3': 5'-monophosphate]", "values": [
      {"measurement": "Activation Constant (Ka), cAKI", "setting": "[1]", "value": "1.8 × 10^-8"},
      {"measurement": "% Cell Population in G1", "setting": "[2]", "value": 53, "unit": "%"},
      {"measurement": "% Cell Population in G2M", "setting": "[2]", "value": 25, "unit": "%"},
      {"measurement": "% Cell Population in S", "setting": "[2]", "value": 22, "unit": "%"},
      {"measurement": "cell cycle phase distribution", "setting": "[2]", "value": "not appreciably different"},
      {"measurement": "antitumor effect", "setting": "[3]; 104 mg/kg bolus, seven consecutive days", "value": "no antitumor effect"},
      {"measurement": "increase in mean life span", "setting": "[3]; constant infusion 104 mg/kg/day, five days", "value": 37, "unit": "%"},
      {"measurement": "percentage growth inhibition of each analogue when added alone", "setting": "[4]", "value": 20, "unit": "%"}
    ]}
  ]
}
